{"source": "paper PMC5845353", "about": "“The selective cathepsin K inhibitor MIV-711 attenuates joint pathology in experimental animal models of osteoarthritis” (Journal of Translational Medicine, 2018)", "key": {"[1]": {"assay": "Synovial fluid concentrations of MIV-711 in dogs", "assay_type": "in vivo", "conditions": "dog", "protocol": "Synovial fluid was collected from as many dogs as possible immediately before surgery and then again during necropsy from both operated and contralateral knees. The fluid was sampled directly without lavage using a syringe. The synovial fluid was transferred into tubes containing EDTA. The samples were spun in a centrifuge, and the supernatant was collected and stored at − 70 °C until analysis.\nTo measure MIV-711 concentrations, 10–50 µL of plasma or synovial fluid was mixed with 30–150 µL of acetonitrile, samples were centrifuged (10 min, 20,000g, 7 °C) and 5 µL of the supernatant was injected onto the LC–MS/MS system. The lower limit of quantification (LLOQ) was 1 nmol/L."}, "dog cathepsin K enzyme": {"target": "dog cathepsin K enzyme", "conditions": "read-out: Ki against dog cathepsin K enzyme; cited from earlier work"}, "[2]": {"test_system": "bone resorption biomarker HP-1", "assay": "Urinary HP-1 (bone resorption biomarker) in ACLT rabbits", "assay_type": "in vivo, rabbit", "protocol": "Starting 1 week after sham operation or ACLT, animals were dosed daily for 7 weeks by oral gavage with either MIV-711 (synthesized by Medivir and given as a suspension in 1% Methocel A4C in water) or vehicle (1% Methocel A4C in water) at a dose volume of 4 mL/kg. The four treatment groups (n = 7 in each group) were: (1) sham + vehicle; (2) ACLT + vehicle; (3) ACLT + MIV-711, 30 µmol/kg (low dose) and (4) ACLT + MIV-711, 100 µmol/kg (high dose).\nUrine was collected in the morning from all animals for biomarker measurements before surgery, before dosing on Day 1, Day 10 and during Week 4 and Week 7. The urine was stored frozen (− 70 to − 80 °C) until analysis.\nIn rabbits, conventional CTX-I assays to assess bone resorption cannot be used due to species differences. Instead, urinary helical peptide (HP-1) concentrations were measured in rabbits using the MicroVue Helical Peptide kit (Ref: 8022) from Quidel (San Diego, CA) according to the instructions supplied by the manufacturer. In dogs, urinary levels of C-terminal telopeptide of collagen type I (CTX-I) were measured using a commercially available kit (Urine BETA CrossLaps ELISA, Ref: AC-05F1, IDS Nordic Bioscience Diagnostics A/S). In rabbits and dogs, urinary concentrations of C-terminal telopeptide of collagen type II (CTX-II) were measured using the Urine CartiLaps EIA kit (Ref: AC-10F1) from Immunodiagnostics Systems (IDS, Herlev, Denmark) according to the instructions supplied by the manufacturer. In dogs, CTX-II levels were also measured in synovial fluid. Before ELISA analysis, 95 µL of synovial fluid was mixed with 5 µL of hyaluronidase (100 U/mL, Sigma, H-3884). The mixture was incubated overnight at 35 °C. The mixture was then used to measure CTX-II levels (Serum Pre-Clinical CartiLaps ELISA, Ref: AC-08F1, IDS Nordic Bioscience Diagnostics A/S). The creatinine levels in urine were determined at Swedish University of Agricultural Sciences (Uppsala, Sweden), using the enzymatic assay (Cat No. 8L24-01) on the Abbott system Architect c4000."}, "[3]": {"test_system": "dogs subjected to partial medial meniscectomy", "assay": "Dog study, principal components analysis of exposure, biomarker, macro- and microscopic data", "assay_type": "in vivo", "conditions": "30 µmol/kg, p < 0.001", "protocol": "Biomarker data was evaluated by two-way ANOVA, followed by Bonferroni’s or Dunnett’s correction for multiple comparisons when appropriate, using GraphPad Prism, version 6 (San Diego, CA). Synovial MIV-711 exposure data was evaluated by Student’s paired t-test. Data from µCT in rabbits was evaluated by one-way ANOVA followed by Dunnett’s correction for multiple comparisons (GraphPad). Macroscopic parameters in dogs were compared using Student’s unpaired t-test. The exposure data, biomarker data and macro- and microscopic data from the dog study were also imported into R (R Foundation for Statistical Computing Version 2.15.0, Vienna, Austria). A principal components analysis was performed using procedure prcomp. Derived scores were subjected to t-tests in Microsoft Excel 2007. Data are expressed as mean ± SEM, n = number of animals. A p-value < 0.05 was considered statistically significant."}, "[4]": {"test_system": "dogs subjected to partial medial meniscectomy", "assay": "Dog partial medial meniscectomy study, sclerosis of subchondral bone and bone area", "assay_type": "in vivo", "source_text": "Sclerosis of subchondral bone (an indication of altered load-bearing) was described and documented for femur using a comparison of medial to lateral, but was not included in the overall cartilage degeneration scores. This parameter was scored based on percent width of the medial femur with obviously thickened subchondral bone according to the following criteria: 0=normal 1=up to 10% of femur width has thickened trabeculae 2=11-30 % of femur width has thickened trabeculae 3=31-60 % of femur width has thickened trabeculae 4=61-90 % of femur width has thickened trabeculae 5=>90% of femur width has thickened trabeculae An additional measure of bone area was performed as follows: The photo file was opened and a fixed segment of 1000 by 400 pixels was selected with the bottom left and right corners touching the tidemark: The selected segment was opened in a new file and segmented into fourths: Black lines were drawn on the three segmenting lines in areas of no bone: Lengths of each individual drawn segment were summed per line for a total length of area of no bone, then divided by the total length of the image and calculated into a percent. Percent of no bone was calculated for each of the three segmented lines and then averaged for a mean percent of no bone for the image."}, "cathepsin K from human": {"target": "cathepsin K from human", "parameters": "method as in PMID 29743078", "conditions": "read-out: Ki against cathepsin K from human; cited from earlier work"}, "plasma proteins": {"test_system": "plasma proteins", "assay": "Fraction bound to plasma proteins, human", "assay_type": "in vitro ADME"}, "[5]": {"conditions": "dog partial medial meniscectomy, group Mean"}, "[6]": {"conditions": "dog partial medial meniscectomy, versus Vehicle group"}}, "note": "Values joined by “and” are separate entries in the source; they are usually repeats but may differ in a detail not shown here. Equal values may be shown once."}
{"smiles": "C#C[C@@H]1CN(C(=O)[C@H](CC(C)C)NC(=O)c2ccc(-c3nc(N4CCN(C)CC4)sc3F)cc2)[C@@H]2C(=O)CO[C@H]12", "note": "[MIV-711]", "values": [{"measurement": "MIV-711 levels in synovial fluid", "setting": "[1]; 24 h after first dose and 24 h after last dose of 30 µmol/kg", "value": "low but measurable"}, {"measurement": "MIV-711 levels in synovial fluid, injured left knee compared to right knee", "setting": "[1]; at sacrifice, 24 h after last dose of 30 µmol/kg", "value": "fivefold higher"}, {"measurement": "Ki", "setting": "dog cathepsin K enzyme", "value": 1.5, "unit": "nM"}, {"measurement": "HP-1 levels decreased by up to, vs ACLT vehicle controls", "setting": "[2]; ACLT rabbits, over doses 30 and 100 µmol/kg and time points", "value": "up to 72%"}, {"measurement": "urinary HP-1 levels reduced by, vs ACLT rabbits treated with vehicle", "setting": "[2]; after 4 weeks, 30 µmol/kg", "value": 43, "unit": "%"}, {"measurement": "urinary HP-1 levels reduced by, vs ACLT rabbits treated with vehicle", "setting": "[2]; after 4 weeks, 100 µmol/kg", "value": 68, "unit": "%"}, {"measurement": "urinary HP-1 levels reduced by, vs ACLT rabbits treated with vehicle", "setting": "[2]; after 7 weeks, 30 µmol/kg (p > 0.05)", "value": 25, "unit": "%"}, {"measurement": "urinary HP-1 levels reduced by, vs ACLT rabbits treated with vehicle", "setting": "[2]; after 7 weeks, 100 µmol/kg", "value": 51, "unit": "%"}, {"measurement": "urinary HP-1 levels reduced by, vs ACLT rabbits treated with vehicle", "setting": "[2]; after 10 days of dosing, 30 µmol/kg", "value": 45, "unit": "%"}, {"measurement": "urinary HP-1 levels reduced by, vs ACLT rabbits treated with vehicle", "setting": "[2]; after 10 days of dosing, 100 µmol/kg", "value": 72, "unit": "%"}, {"measurement": "principal component Score 2 (mainly biomarker data), vehicle vs MIV-711-treated groups", "setting": "[3]", "value": "significantly different"}, {"measurement": "Bone Score", "setting": "[4]; MIV-711 group mean, sclerosis of subchondral bone", "value": 3.07}, {"measurement": "% inhibition, Bone Score", "setting": "[4]; MIV-711 group vs vehicle", "value": 4, "unit": "%"}, {"measurement": "Percent Length of no Bone, LFC Mean", "setting": "[4]; [5]", "value": 57, "unit": "%"}, {"measurement": "Percent Length of no Bone, LFC Site 1", "setting": "[4]; [5]", "value": 59, "unit": "%"}, {"measurement": "Percent Length of no Bone, LFC Site 2", "setting": "[4]; [5]", "value": 58, "unit": "%"}, {"measurement": "Percent Length of no Bone, LFC Site 3", "setting": "[4]; [5]", "value": 54, "unit": "%"}, {"measurement": "Percent Length of no Bone, MFC Mean", "setting": "[4]; [5]", "value": 39, "unit": "%"}, {"measurement": "Percent Length of no Bone, MFC Site 1", "setting": "[4]; [5]", "value": 42, "unit": "%"}, {"measurement": "Percent Length of no Bone, MFC Site 2", "setting": "[4]; [5]", "value": 39, "unit": "%"}, {"measurement": "Percent Length of no Bone, MFC Site 3", "setting": "[4]; [5]", "value": 36, "unit": "%"}, {"measurement": "Percent Length of no Bone, Overall Mean", "setting": "[4]; [5]", "value": 48, "unit": "%"}, {"measurement": "Percent Length of no Bone, LFC Site 2", "setting": "[4]; dog partial medial meniscectomy, individual animal, LFC site 2", "value": "50% and 62% and 55% and 63% and 66% and 57% and 51% and 54% and 59% and 45% and 60% and 72%"}, {"measurement": "Percent Length of no Bone, LFC Site 3", "setting": "[4]; dog partial medial meniscectomy, individual animal, LFC site 3", "value": "42% and 48% and 49% and 64% and 60% and 58% and 45% and 59% and 47% and 46% and 56% and 71% and 52%"}, {"measurement": "Percent Length of no Bone, MFC Site 1", "setting": "[4]; dog partial medial meniscectomy, individual animal, MFC site 1", "value": "47% and 50% and 24% and 35% and 52% and 38% and 36% and 57% and 44% and 48% and 51% and 21%"}, {"measurement": "Percent Length of no Bone, MFC Site 2", "setting": "[4]; dog partial medial meniscectomy, individual animal, MFC site 2", "value": "32% and 42% and 21% and 39% and 46% and 38% and 52% and 37% and 34% and 51% and 27% and 57% and 26% and 36%"}, {"measurement": "Percent Length of no Bone, MFC Site 3", "setting": "[4]; dog partial medial meniscectomy, individual animal, MFC site 3", "value": "34% and 33% and 21% and 36% and 51% and 24% and 32% and 22% and 49% and 44% and 41% and 40%"}, {"measurement": "Percent Length of no Bone, LFC Site 1", "setting": "[4]; dog partial medial meniscectomy, individual animal, lateral femoral condyle site 1", "value": "58% and 64% and 49% and 53% and 63% and 54% and 70% and 57% and 61% and 46% and 66% and 67%"}, {"measurement": "Percent Length of no Bone, LFC Mean", "setting": "[4]; dog partial medial meniscectomy, individual animal, mean of LFC sites 1-3", "value": "50% and 58% and 51% and 60% and 63% and 56% and 55% and 54% and 52% and 70%"}, {"measurement": "Percent Length of no Bone, MFC Mean", "setting": "[4]; dog partial medial meniscectomy, individual animal, mean of MFC sites 1-3", "value": "38% and 42% and 22% and 37% and 50% and 33% and 51% and 35% and 30% and 52% and 46%"}, {"measurement": "Percent Length of no Bone, Overall Mean", "setting": "[4]; dog partial medial meniscectomy, individual animal, overall mean LFC and MFC", "value": "44% and 50% and 37% and 48% and 56% and 45% and 53% and 54% and 46% and 49%"}, {"measurement": "% inhibition of Percent Length of no Bone, LFC Mean", "setting": "[4]; [6]", "value": 1, "unit": "%"}, {"measurement": "% inhibition of Percent Length of no Bone, LFC Site 1", "setting": "[4]; [6]", "value": -4, "unit": "%"}, {"measurement": "% inhibition of Percent Length of no Bone, LFC Site 2", "setting": "[4]; [6]", "value": 2, "unit": "%"}, {"measurement": "% inhibition of Percent Length of no Bone, LFC Site 3", "setting": "[4]; [6]", "value": 6, "unit": "%"}, {"measurement": "% inhibition of Percent Length of no Bone, MFC Mean", "setting": "[4]; [6]", "value": -10, "unit": "%"}, {"measurement": "% inhibition of Percent Length of no Bone, MFC Site 1", "setting": "[4]; [6]", "value": -12, "unit": "%"}, {"measurement": "% inhibition of Percent Length of no Bone, MFC Site 2", "setting": "[4]; [6]", "value": 1, "unit": "%"}, {"measurement": "% inhibition of Percent Length of no Bone, MFC Site 3", "setting": "[4]; [6]", "value": -21, "unit": "%"}, {"measurement": "% inhibition of Percent Length of no Bone, Overall Mean", "setting": "[4]; [6]", "value": -3, "unit": "%"}, {"measurement": "effects on subchondral bone sclerosis and bone area at the microscopic level", "setting": "[4]; dog, 30 µmol/kg", "value": "no significant effects"}, {"measurement": "Bone Score", "setting": "[4]; individual dogs of MIV-711 group, scoring of sclerosis of subchondral bone", "value": "5 and 3 and 4 and 2 and 1"}, {"measurement": "Ki", "setting": "cathepsin K from human", "value": 0.98, "unit": "nM"}, {"measurement": "fraction bound to plasma proteins", "setting": "plasma proteins", "value": 94, "unit": "%"}]}
